# Where “and” joins values, the source holds several entries; their conditions need not be identical. Equal entries are not always repeated.
# Columns and labels:
# TALL-1 = experiment: In vitro human tumor cell line cytotoxicity assay; format: cell-based; details: read-out: RelIC50
# TE-9 = experiment: In vitro human tumor cell line cytotoxicity assay; format: cell-based; details: read-out: RelIC50
# H460 cells = experiment: In vitro proliferation assay, H460; format: cell-based; details: Homo sapiens, NCI-H460; 2 hrs exposure, wash, additional 70hrs, AlamarBlue; read-out: IC 50 in proliferation assay in H460 cells
# Experimental: In vitro proliferation data on the H460 […] human tumor cell line is reported above in the compound table. IC50 values are reported in micromolar and result from exposure of compound at various concentrations for 2 hrs followed by a wash step and addition of fresh media followed by growth and cell viability staining and comparison to a media only treated control.
# Specifically, exponentially growing cells were seeded at a density of 4 x 10^3 cells per well in a 96 well plate and incubated at 37°C in 5% CO2, 95% air and 100% relative humidity for 24 hours prior to addition of test compounds. Compounds were solubilized in 100% DMSO at 200 times the desired final test concentration. At the time of drug addition, compounds were further diluted to 4 times the desired final concentration with complete medium. Aliquots of 50 µl of compound at specified concentrations were added to microtiter wells already containing 150 µl of medium, resulting in the final drug concentration reported. After drug addition, the plates were incubated for an additional 2 hours at 37°C, 5% CO2, 95% air, and 100% relative humidity, then the drug was washed off and fresh medium was added and the plates were incubated for addition 70hrs at 37 °C, 5% CO2, 95% air and 100% relative humidity. At the end of this incubation, the viable cells were quantified using the AlamarBlue assay. The drug concentration resulting in growth inhibition of 50% (IC50) was calculated using Prism software (Irvine, CA), and the results were listed in the table.
# [1] = test system: HepG2-GFP human hepatocellular carcinoma; experiment: Orthotopic mouse model of human liver cancer, tumor burden; format: in vivo, athymic nude mice; details: for tumor inhibition rate IR(%): from final average tumor weights
# Experimental: Female athymic nude mice (6 weeks of age) were used in this study. The animals were purchased from Beijing HFK Bioscience, Co., Ltd and maintained in a High Efficiency Particulate Air Filter (HEPA) filtered environment with cages, food, and bedding sterilized by irradiation or autoclaving. A total of 32 nude mice were used for the study. HepG2-GFP human hepatocellular carcinoma cells (AntiCancer, Inc., San Diego, CA) were incubated with RPMI-1640 (Gibco-BRL, Life Technologies, Inc.), which contained 10% FBS. Cells were grown in a CO2 Water Jacketed Incubator (Forma Scientific) maintaining 37°C and a 5% CO2/95% air atmosphere. Cell viability was determined by trypan blue exclusion analysis. Five female athymic nude mice were injected subcutaneously with a single dose of 5 x 10^6 HepG2-GFP cells. Tumors were harvested when their size reached 1cm^3 and the tumor tissues were then cut into small fragments of 1mm^3. Forty female nude mice were implanted orthotopically with a single piece of tumor fragment, which was derived from a subcutaneous tumor model of HepG2-GFP human hepatocellular carcinoma. The tumor tissue was orthotopically implanted in the right lobe of the liver in each mouse by SOI (Surgical Orthotopic Implantation). Briefly, an upper abdominal incision of 1cm was made under anesthesia. Right lobe of the liver was exposed and a part of the liver surface was injured mechanically by scissors. Then a piece of tumor fragment was fixed within the liver tissue, the liver was returned to the peritoneal cavity and the abdominal wall finally closed. Mice were kept in laminar-flow cabinets under specific pathogen-free-conditions.
# Treatment was started three days after tumor implantation when the implanted tumors reached an average size of around 1 mm^2. The 32 tumor-bearing mice were randomly divided into four experimental groups of 8 mice each. Each cage was clearly marked for its group with four mice per cage. […] Table. Groups and treatment protocol
# During the period of the study, all of the experimental mice were checked daily for mortality or signs of morbidity. […] The body weights of the mice were measured twice weekly during the study period. Images of tumor growth and progression were acquired twice a week during the period of the study with the FluorVivo imaging system, Model 300/Mag (INDEC, CA, USA). […] Livers were exposed for imaging, after which the tumors were removed and weighted with an electronic balance (Sartorius BS 124 S, Germany). Tumor tissues were kept in formalin for further analysis. Comparisons of body weights and tumor burdens in different groups were analyzed using the Student's t-test with an α = 0.05 (two-sided). After intravenously injection of the test agents, the mice had no lying, no autonomous activity reduction. The experimental animals were generally in good condition. Table. Comparison of mean mice body weight at the end of the study
# The progressions of orthotopic HepG2-GFP hepatocellular carcinoma in different groups were monitored by real time imaging. Images were acquired twice a week. Typical tumor images at the end of the study in each group and tumor growth curves derived from the signals of tumor fluorescence, which were analyzed using the Power Station software (INDEC Biosystems, CA, USA), are shown in figure 6 and figure 7, respectively Table. Average tumor size in each group (mm2)
compound,measurement,setting,value
"C[C@H](OP(=O)(N1CC1)N1CC1)c1ccc([N+](=O)[O-])c(Oc2cccc(C(=O)N(C)C)c2)c1 (single isomer, unassigned) [TH3424]",IC50,TALL-1,30 nM
same,IC50,TE-9,11 nM
same,IC50,H460 cells,4 nM
same,Tumor area (mm^2) (mean ± sd),"[1]; 2.5mg/kg, QWx6, I.P., Day 35",1.2 ± 1.1 mm^2 and 1.2 ± 1.1(Day 35) mm^2
same,Tumor area (mm^2) (mean ± sd),"[1]; 2.5mg/kg, QWx6, I.P., Day 49",2.0 ± 2.2 mm^2 and 2.0 ± 2.2(Day 49) mm^2
same,Tumor weight (g) (mean ± sd),"[1]; 2.5mg/kg, QWx6, I.P., Day 49",0.0081±0.0088 g and 0.0081±0.0088 (Day 49) g
same,average fluorescence imaging readout area as % of that in the negative control group,"[1]; 2.5 mg/kg, day 35",around 8%
same,average fluorescence imaging readout area as % of that in the negative control group,"[1]; 2.5 mg/kg, day 49 after treatment",around 8%
same,tumor inhibition rate IR(%),[1]; 2.5 mg/kg,94.8%
same,Tumor area (mm^2) (mean ± sd),"[1]; 5mg/kg, QWx3, I.P.",0 mm^2 and 0.0 ± 0.0 mm^2
same,Tumor weight (g) (mean ± sd),"[1]; 5mg/kg, QWx3, I.P.",0 g and 0.0000 ± 0.0000 g
same,tumor inhibition rate IR(%),[1]; 5mg/kg,100%
same,average tumor weight as % of that in the negative control group,"[1]; high dose group, 5mg/kg",0%
same,average tumor weight as % of that in the negative control group,"[1]; low dose group, 2.5mg/kg",5.2%

# Source: patent publication EP3390415B1, “(R)- AND (S)-1-(3-(3-N,N-DIMETHYLAMINOCARBONYL)PHENOXYL-4-NITROPHENYL)-1-ETHYL-N,N'-BIS (ETHYLENE)PHOSPHORAMIDATE, COMPOSITIONS AND METHODS FOR THEIR USE AND PREPARATION” (OBI PHARMA, INC., priority 2015, dated 2017)
